Data published in patent US20220202052A1, “AROMATIC ALKAMIDES AND METHODS OF USE THEREOF IN TASTE MODULATION” (INTERNATIONAL FLAVORS & FRAGRANCES INC., priority 2019, published 2022).

How the values were obtained:
Format in all cases: in vivo, human
[1] = Trained taste panel, individual alkamides and blend vs ethanol extract; settings: 5% pea protein isolate with 200 μl ethanol, levels per sample in Table 12; for Liking Score: 1 is best, 10 is worst
Description: Additional compositions were prepared (Table 12) and assessed by a trained taste panel for taste modulating activity as compared to an ethanol extract of L. meyenii. The protein control sample was a 5% pea protein isolate solution with 200 μl of ethanol added thereto.

[2] = Sensory analysis of aromatic alkamide fractions by trained taste panel; settings: 0.5 ppm in 4% pea protein isolate solution
Description: Sensory analysis of the aromatic alkamides was carried out. Specifically, each isolated fraction, corresponding to each of the aromatic alkamides in Table 7 (samples 14 to 21) (0.5 ppm), was added to a 4% pea protein isolate solution and the ability of the fraction to mask protein off-taste, bitterness, and/or astringency was assessed by a trained taste panel.

[3] = Modulation of umami perception, trained panel; settings: 0.5 ppm in 0.4% Chicken Bouillon solution
Description: The ability of L. meyenii extracts and fractions thereof to modulate umami flavors was determined by adding 25 ppm of an ethanolic extract of L. meyenii root (Example 1), 2 ppm of an ethyl acetate layer of a crude ethanolic extract, or 0.5 ppm of a fraction enriched in N-benzyloctadecanamide to a 0.4% Chicken Bouillon solution (Knorr Chicken Bouillon). Sensory analyses of the above-referenced compositions were carried out by a trained panel, the results of which are presented in Table 10.

| Structure (SMILES) | Off Taste: Astringent (intensity) [1] | Off Taste: Beany (intensity) [1] | Off Taste: Bitter (intensity) [1] | Off Taste: Burnt (intensity) [1] | Off Taste: Chalky (intensity) [1] | Off Taste: Earthy (intensity) [1] | Off Taste: Fishy (intensity) [1] | Off Taste: Gritty (intensity) [1] | Off Taste: Metallic/Unpleasant (intensity) [1] | Off Taste: Nutty (intensity) [1] | Off Taste: Sour (intensity) [1] | Liking Score [1] | Sensory taste in 4% protein base [2] | Chicken Bouillon sensory (umami modulation) [3] |
| --- | --- | --- | --- | --- | --- | --- | --- | --- | --- | --- | --- | --- | --- | --- |
| CCCCCCCCCCCCCCCC(=O)NCc1ccccc1 [Macamide 1, N-benzylhexadecanamide] | 2 | 3 | 2 | 0 | 2 | 2 | 0 | 2 | 1 | 0 | 2 | 1 | – | – |
| CCCCCCCCC/C=C/C=C/C(=O)CCCC(=O)NCc1ccccc1 [Macamide 2] | 2 | 5 | 3 | 0 | 2 | 2 | 0 | 2 | 1 | 2 | 3 | 2 | Good masking. | – |
| CCCCC/C=C\C/C=C\CCCCCCCC(=O)NCc1ccccc1 [N-Benzyl linoleamide, N-Benzyllinoleamide] | – | – | – | – | – | – | – | – | – | – | – | – | Little masking. | – |
| CC/C=C\C/C=C\C/C=C\CCCCCCCC(=O)NCc1ccccc1 [N-Benzyl linolenamide, N-Benzyllinolenamide] | – | – | – | – | – | – | – | – | – | – | – | – | Moderate masking. | – |
| CCCCCCCCCCCCCCCCCC(=O)NCc1ccccc1 [N-Benzyloctadecanamide, N-Benzyl octadecanamide] | 2 | 3 | 2 | 0 | 2 | 2 | 0 | 2 | 2 | 2 | 2 | 1 | – | Showed some enhancement |
| CCCCCCCC/C=C\CCCCCCCC(=O)NCc1ccccc1 [N-Benzyloleamide] | 4 | 5 | 2 | 0 | 6 | 2 | 0 | 4 | 2 | 2 | 2 | 2 | Little masking. | – |
